In general, EC50 refers to the concentration giving half of the maximal effect.

SMILES strings stand for the structures.

In this assay the target is T1, human recombinant mGluR5 (Homo sapiens, UniProt P41594).
T1 construct: expressed in transfected cells; host or cells: HEK 293 cell line cultured with tetracycline, hygromycin and geneticin; tetracycline removed 3-7 days before the assay
T1 sequence (P41594 21-1212): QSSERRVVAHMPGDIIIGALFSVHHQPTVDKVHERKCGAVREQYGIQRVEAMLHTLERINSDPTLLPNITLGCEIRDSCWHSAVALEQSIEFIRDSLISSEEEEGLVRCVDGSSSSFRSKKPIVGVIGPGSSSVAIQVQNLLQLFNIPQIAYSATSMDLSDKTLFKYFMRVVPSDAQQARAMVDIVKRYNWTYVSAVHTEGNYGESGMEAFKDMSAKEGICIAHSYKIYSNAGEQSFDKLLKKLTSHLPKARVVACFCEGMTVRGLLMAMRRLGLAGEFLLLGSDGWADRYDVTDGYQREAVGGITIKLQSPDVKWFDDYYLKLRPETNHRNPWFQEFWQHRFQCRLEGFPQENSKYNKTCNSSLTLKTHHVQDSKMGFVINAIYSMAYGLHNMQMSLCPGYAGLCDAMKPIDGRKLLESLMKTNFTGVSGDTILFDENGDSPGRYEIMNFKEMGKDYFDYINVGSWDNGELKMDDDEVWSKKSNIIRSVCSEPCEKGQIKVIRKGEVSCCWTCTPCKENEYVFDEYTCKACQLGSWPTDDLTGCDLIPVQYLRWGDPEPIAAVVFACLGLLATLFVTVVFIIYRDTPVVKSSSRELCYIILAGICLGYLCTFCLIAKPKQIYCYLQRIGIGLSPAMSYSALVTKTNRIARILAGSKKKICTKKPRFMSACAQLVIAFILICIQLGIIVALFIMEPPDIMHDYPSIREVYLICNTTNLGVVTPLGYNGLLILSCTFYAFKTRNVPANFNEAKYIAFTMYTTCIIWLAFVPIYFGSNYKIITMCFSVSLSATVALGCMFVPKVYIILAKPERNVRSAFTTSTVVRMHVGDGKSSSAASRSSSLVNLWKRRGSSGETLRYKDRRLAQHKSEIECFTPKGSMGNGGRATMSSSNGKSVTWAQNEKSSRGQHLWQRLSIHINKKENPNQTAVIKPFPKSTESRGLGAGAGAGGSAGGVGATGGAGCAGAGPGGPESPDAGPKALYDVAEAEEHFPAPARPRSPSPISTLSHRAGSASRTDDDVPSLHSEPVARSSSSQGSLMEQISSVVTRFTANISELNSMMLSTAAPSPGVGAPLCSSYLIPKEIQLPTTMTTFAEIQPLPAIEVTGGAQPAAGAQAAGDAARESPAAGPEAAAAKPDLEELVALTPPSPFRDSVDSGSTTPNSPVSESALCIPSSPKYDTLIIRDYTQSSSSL
The assay can be described thus: positive modulation of mGluR5, calcium based FLIPR assay in HEK 293 cells. The settings on record: HEK 293 cell line expressing human recombinant mGluR5; EC50 of the modulation of the glutamate response (glutamate approx. 5% basal stimulation); peak height of Ca release fluorescence signal. In outline:
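HEK 293 cells expressing human mGluR5 (tetracycline-free medium 3-7 days before), loaded with Calcium-4 dye, in Ringer buffer pH 7.4, 1% DMSO. Compound pre-incubated 5 min, then glutamate at about 5% of maximal effect added; EC50 from peak Ca2+ fluorescence by nonlinear regression, scaled between DMSO (100%) and 10 μM CDPPB (200%) controls.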
Regarding `O=C(Cn1nc(-c2ccc(F)cc2)nc1-c1ccc(F)cc1)N1CCN(c2cc(NC3CCOCC3)ncn2)CC1` [Example 07.08.05.], the concentration giving a half-maximal response (EC50) was determined as 510 nM.
The same measure for `CCc1nc(-c2ccc(F)c(C)c2)nn1CC(=O)N1CCN(c2ccccn2)CC1` [Example 07.04.091.]: 1090 nM; for `COc1ccc(-c2nc(-c3ccc(OC)cc3)n(CC(=O)N3CCN(c4cccc(OC)n4)CC3)n2)cc1` [Example 07.02.15.]: 675 nM.
For `CCc1nc(-c2ccc(OC(F)F)cc2)nn1CC(=O)N1CCN(c2ncccn2)CC1` [Example 7.04.163] the value was 850 nM.
For `O=C(Cn1nc(-c2ccc(F)cc2)nc1-c1ccc(F)cc1)N1CCN(c2cc(NC3CCC3)ncn2)CC1` [Example 07.08.20.], the EC50 is 155 nM.
As to `COC[C@H](C)Oc1cc(N2CCN(C(=O)Cn3nc(-c4ccc(F)cc4)nc3-c3ccc(F)cc3)CC2)ncn1` [Example 07.09.30.], the EC50 was 75 nM.
For `N#Cc1ccc(N2CCN(C(=O)Cn3nc(-c4ccc(F)cc4)nc3-c3ccc(F)cc3)CC2)nc1` [Example 07.04.11.] the value was 1570 nM; for `Cc1ccnc(N2CCN(C(=O)Cn3nc(-c4ccccc4)nc3-c3ccccc3)CC2)c1` [Example 07.02.28.], 243 nM.
For `CCCCc1nc(-c2ccc(F)c(C)c2)nn1CC(=O)N1CCN(c2cc(OC)ncn2)CC1` [Example 07.04.119.] the value was 298 nM; for `COc1ccc(-c2nc(C3CCCCC3)n(CC(=O)N3CCN(c4cc(C)ccn4)CC3)n2)c(F)c1` [Example 07.04.021.], 647 nM.
For `Cc1cc(-c2nc(-c3ccccc3)nn2CC(=O)N2CCN(c3ncccn3)CC2)ccc1Br` [Example 07.01.07.] the value was 66 nM; for `Cc1cc(-c2nc(-c3ccccc3)nn2CC(=O)N2CCN(c3ncccn3)CC2)ccc1F` [Example 07.04.073.], 87 nM; for `COc1cccc(-c2nc(C(C)C)n(CC(=O)N3CCN(c4ncccn4)CC3)n2)c1` [Example 07.04.161.], 1520 nM.
Turning to `COc1cc(N2CCN(C(=O)Cn3nc(-c4ccc(F)c(C)c4)nc3-c3ccc(F)c(C)c3)CC2)ncn1` [Example 07.04.155.], the EC50 worked out at 59 nM.
The same measure for `O=C(Cn1nc(-c2ccc(F)cc2)nc1-c1ccc(F)cc1)N1CCN(c2cc(OC3CCOCC3)ncn2)CC1` [Example 07.09.21.]: 79 nM.
For `COc1ccc(-c2nc(-c3ccc(F)cc3)nn2CC(=O)N2CCN(c3ncc(Cl)cn3)CC2)cc1` [Example 07.04.045.] the value was 80 nM; for `Cc1cc(-c2nc(C3CCCC(C)C3)n(CC(=O)N3CCN(c4ncccn4)CC3)n2)ccc1F` (stereo not drawn) [Example 07.04.145.], 373 nM.
In the case of `Cc1ccnc(N2CCN(C(=O)Cn3nc(-c4ccc(F)c(C)c4)nc3C3CCCCC3)CC2)c1` [Example 07.04.067.], the EC50 came out at 207 nM.
As for `Cc1ccnc(N2CCN(C(=O)Cn3nc(-c4ccc(F)cc4)nc3CCc3ccccc3)CC2)c1` [Example 07.04.151.], the concentration giving a half-maximal response (EC50) worked out at 560 nM.
For the molecule `CCCCc1nc(-c2ccc(F)c(C)c2)nn1CC(=O)N1CCN(c2cc(C)ccn2)CC1` [Example 07.04.115.], the EC50 worked out at 208 nM.
For `CCN(CC)c1cc(N2CCN(C(=O)Cn3nc(-c4ccc(F)cc4)nc3-c3ccc(F)cc3)CC2)ncn1` [Example 07.08.15.] the value was 205 nM; for `COc1ccc(-c2nc(C3CCCCC3)n(CC(=O)N3CCN(c4cc(C)ccn4)CC3)n2)cc1` [Example 07.02.26.], 252 nM; for `CN1CCN(c2cc(N3CCN(C(=O)Cn4nc(-c5ccc(F)cc5)nc4-c4ccc(F)cc4)CC3)ncn2)CC1=O` [Example 07.08.14.], 822 nM.
For `O=C(Cn1nc(-c2ccc(F)cc2)nc1-c1ccc(F)cc1)N1CCN(c2cc(OCCN3CCNC3=O)ncn2)CC1` [Example 07.09.18.] the value was 103 nM.
The same measure for `COc1ccc(Cl)cc1N1CCN(C(=O)Cn2nc(-c3ccc(F)cc3)nc2-c2ccc(F)cc2)CC1` [Example 07.04.002.]: 2000 nM.
Take `CCc1cc(N2CCN(C(=O)Cn3nc(-c4ccc(F)cc4)nc3-c3ccc(F)cc3)CC2)nc(Cl)n1` [Example 07.03.27.]: the concentration for a half-maximal effect (EC50) worked out at 1210 nM.
For `Cc1cc(-c2nc(C3CCCCC3)n(CC(=O)N3CCN(c4cccnn4)CC3)n2)ccc1F` [Example 07.04.072.] the value was 257 nM.
The same measure for `Cc1cc(-c2nc(-c3ccc(F)c(C)c3)n(CC(=O)N3CCN(c4ncccn4)CC3)n2)ccc1F` [Example 07.04.153.]: 22 nM; for `Cc1cc(C)cc(-c2nc(-c3ccccc3)n(CC(=O)N3CCN(c4ncccn4)CC3)n2)c1` [Example 07.10.16.]: 31 nM.
The same measure for `COc1cc(N2CCN(C(=O)Cn3nc(-c4cccc(C(C)C)c4)nc3-c3ccccc3)CC2)ncn1` [Example 07.10.34.]: 157 nM.
With `Cc1cc(-c2nc(C3CCCCC3)n(CC(=O)N3CCN(c4ncccn4)CC3)n2)ccc1F` [Example 07.04.066.], the concentration for a half-maximal effect (EC50) was determined as 101 nM.
In the case of `Cc1cc(-c2nc(C3CCCC3)n(CC(=O)N3CCN(c4ccccn4)CC3)n2)ccc1F` [Example 07.04.113.], the EC50 was 263 nM.
The same measure for `COCCNc1cc(N2CCN(C(=O)Cn3nc(-c4ccc(F)cc4)nc3-c3ccc(F)cc3)CC2)ncn1` [Example 07.08.21.]: 201 nM; for `COc1cc(N2CCN(C(=O)Cn3nc(-c4ccc(F)c(C(F)(F)F)c4)nc3-c3ccccc3)CC2)ncn1` [Example 07.10.31.]: 270 nM.
With `O=C(Cn1nc(-c2ccccc2)nc1-c1ccc(CN2CCOCC2)cc1)N1CCN(c2ncccn2)CC1` [Example 07.10.28.], the EC50 amounted to 804 nM.
For the molecule `COc1cc(N2CCN(C(=O)Cn3nc(-c4ccc(F)c(C)c4)nc3C(C)C)CC2)ncn1` [Example 07.04.086.], the concentration giving a half-maximal response (EC50) is 1170 nM.
As to `O=C(Cn1nc(-c2ccccc2)nc1C1=CCCCC1)N1CCN(c2ncccn2)CC1` [Example 07.10.26.], the EC50 turned out to be 543 nM.
`COc1ccc(-c2nc(-c3ccc(F)cc3)nn2CC(=O)N2CCN(c3cc(OC)ncn3)CC2)cc1` [Example 07.04.042.]: the EC50 is 148 nM.
The same measure for `COCCCN(C)c1cc(N2CCN(C(=O)Cn3nc(-c4ccc(F)cc4)nc3-c3ccc(F)cc3)CC2)ncn1` [Example 07.08.11.]: 293 nM; for `CCC(C)c1nc(-c2ccc(F)c(C)c2)nn1CC(=O)N1CCN(c2ncccn2)CC1` (stereo not drawn) [Example 07.04.101.]: 294 nM.
Regarding `Cc1ccnc(N2CCN(C(=O)Cn3nc(-c4ccc(F)cc4)nc3C3CCCC3)CC2)c1` [Example 07.04.048.], the EC50 is 591 nM.
The same measure for `COc1ccc(-c2nc(-c3ccccc3)n(CC(=O)N3CCN(c4ccccn4)CC3)n2)cc1` [Example 07.04.054.]: 100 nM.
Regarding `Cc1cc(-c2nc(C3CCC(F)(F)CC3)n(CC(=O)N3CCN(c4ncccn4)CC3)n2)ccc1F` [Example 07.04.144.], the EC50 was found to be 1270 nM.
With `COc1cccc(-c2nc(-c3ccc(F)cc3)nn2CC(=O)N2CCN(c3ncccn3)CC2)c1` [Example 07.04.026.], the EC50 turned out to be 236 nM.
For `Cc1cccc(-c2nc(-c3ccccc3)n(CC(=O)N3CCN(c4ncccn4)CC3)n2)c1` [Example 07.10.05.] the value was 17 nM; for `O=C(Cn1nc(-c2ccc(F)cc2)nc1-c1ccc(F)cc1)N1CCN(c2cc(OC[C@@H]3CCCO3)ncn2)CC1` [Example 07.09.23.], 62 nM.
The same measure for `CCOc1cc(N2CCN(C(=O)Cn3nc(-c4ccc(F)cc4)nc3-c3ccc(F)cc3)CC2)ncn1` [Example 07.06.02.]: 70 nM.
In the case of `O=C(Cn1nc(-c2ccc(F)cc2)nc1C1CCCCC1)N1CCN(c2ccccn2)CC1` [Example 07.04.029.], the concentration giving a half-maximal response (EC50) was 1560 nM.
Regarding `COc1cc(N2CCN(C(=O)Cn3nc(-c4ccc(F)c(C)c4)nc3-c3ccccc3)CC2)ncn1` [Example 07.04.060.], the 50% effective concentration (EC50) was 55 nM.
For `CCc1cc(N2CCN(C(=O)Cn3nc(-c4ccc(F)cc4)nc3-c3ccc(F)cc3)CC2)ncn1` [Example 07.03.26.] the value was 177 nM; for `CN(C)c1cc(N2CCN(C(=O)Cn3nc(-c4ccc(F)cc4)nc3-c3ccc(F)cc3)CC2)ncn1` [Example 07.06.01., 2-(3,5-Bis-(4-fluoro-phenyl)-(1,2,4)triazol-1-yl)-1-(4-(6-dimethylamino-pyrimidin-4-yl)-piperazin-1-yl)-ethanone], 167 nM; for `COc1ccc(-c2nc(-c3ccccc3)n(CC(=O)N3CCN(c4ncccc4C#N)CC3)n2)cc1OC` [Example 07.02.19.], 494 nM.
The same measure for `COc1ccc(-c2nc(-c3ccc(OC)cc3)n(CC(=O)N3CCN(c4ccc(C)cn4)CC3)n2)cc1` [Example 07.02.11.]: 375 nM; for `COc1ccc(-c2nc(-c3ccccc3)n(CC(=O)N3CCN(c4ccc(C)cn4)CC3)n2)cc1OC` [Example 07.02.21.]: 451 nM.
The same measure for `COc1cc(OC)cc(-c2nc(-c3ccccc3)n(CC(=O)N3CCN(c4ncccn4)CC3)n2)c1` [Example 07.10.09.]: 553 nM.
Take `CCNc1cc(N2CCN(C(=O)Cn3nc(-c4ccc(F)cc4)nc3-c3ccc(F)cc3)CC2)ncn1` [Example 07.08.12.]: the 50% effective concentration (EC50) stood at 210 nM.
Take `O=C(Cn1nc(-c2ccc(F)cc2)nc1-c1ccc(F)cc1)N1CCN(c2cccc(F)c2)CC1` [Example 07.03.05.]: the EC50 was 469 nM.
For `COc1cc(N2CCN(C(=O)Cn3nc(-c4ccc(F)cc4)nc3-c3ccccc3)CC2)ncn1` [Example 07.10.32.] the value was 225 nM.
The same measure for `O=C(Cn1nc(-c2ccc(F)cc2)nc1-c1ccc(F)cc1)N1CCN(c2cc(F)ccn2)CC1` [Example 07.01.04.]: 82 nM; for `CCCCCc1nc(-c2ccc(F)c(C)c2)nn1CC(=O)N1CCN(c2cc(C)ccn2)CC1` [Example 07.04.125.]: 109 nM.

Source of the values: patent US8889677B2, “Substituted triazoles useful as mGlu5 receptor modulators” (Boehringer Ingellheim International GmbH, priority 2012, dated 2014).
